Experiments:
BCBL-1 cells = experiment: Intracellular phosphorylation in KSHV-infected BCBL-1 cells (HPLC of methanolic extracts)
Procedure: Exponentially growing BCBL-1 cells or CEM-SS cells (a human T cell line) were washed three times with PBS and cultured in serum free AIM-V w/BSA medium (Invitrogen) at 2×10^5 cells/mL in the absence (unstimulated control) or presence of 20 ng/mL PMA. After 24 hours, unstimulated and PMA-stimulated cells were harvested, washed once with PBS and resuspended in serum free AIM-V […] radiolabeled compound [^3H]-(N)-MCT, [^3H]-CDV or [^3H]-GCV. Control cultures containing the same concentration of the test compounds but without the radiolabeled formulations were simultaneously set up in an identical manner to assess the cell counts and to evaluate their anti-KSHV activity. In selected experiments, 5′-ET was added at 10˜50 μM to investigate the changes in the anti-KSHV activity and intracellular phosphorylation profiles of the test compounds. The cells were harvested after 24 or 72 hours of incubation.
Upon harvest, the cells were centrifuged at 1,500 rpm for 10 min and washed once with cold PBS. The cell pellets were resuspended in 250 μL of 60% methanol and heated at 95° C. for 3 min, followed by a microcentrifugation at 12,000 g for 10 min at 4° C. The clarified supernatant fractions were evaporated under nitrogen, redissolved in 250 μL of water and subjected to HPLC separation of the phosphorylated metabolites as described in detail elsewhere (Noy, R. et al. 2002 Mol Cancer Ther 1:585-93; Zalah, L. et al. 2002 Antiviral Res 55:63-75). Fractions containing radiolabeled nucleotides were quantitated based on the known specific activity of the parent tritiated nucleoside (Noy, R. et al. 2002 Mol Cancer Ther 1:585-93; Zalah, L. et al. 2002 Antiviral Res 55:63-75).

[1] = biological target: T1, recombinant KSHV DNA polymerase (rPOL) and polymerase processivity factor (rPPF) (Human herpesvirus 8 type P, UniProt Q2HRD0); conditions: read-out: IC50 (μM) (mean ± SD), KSHV rPOL/rPPF-mediated DNA synthesis; 37° C., 60 min
T1 sequence (Q2HRD0 1-1012): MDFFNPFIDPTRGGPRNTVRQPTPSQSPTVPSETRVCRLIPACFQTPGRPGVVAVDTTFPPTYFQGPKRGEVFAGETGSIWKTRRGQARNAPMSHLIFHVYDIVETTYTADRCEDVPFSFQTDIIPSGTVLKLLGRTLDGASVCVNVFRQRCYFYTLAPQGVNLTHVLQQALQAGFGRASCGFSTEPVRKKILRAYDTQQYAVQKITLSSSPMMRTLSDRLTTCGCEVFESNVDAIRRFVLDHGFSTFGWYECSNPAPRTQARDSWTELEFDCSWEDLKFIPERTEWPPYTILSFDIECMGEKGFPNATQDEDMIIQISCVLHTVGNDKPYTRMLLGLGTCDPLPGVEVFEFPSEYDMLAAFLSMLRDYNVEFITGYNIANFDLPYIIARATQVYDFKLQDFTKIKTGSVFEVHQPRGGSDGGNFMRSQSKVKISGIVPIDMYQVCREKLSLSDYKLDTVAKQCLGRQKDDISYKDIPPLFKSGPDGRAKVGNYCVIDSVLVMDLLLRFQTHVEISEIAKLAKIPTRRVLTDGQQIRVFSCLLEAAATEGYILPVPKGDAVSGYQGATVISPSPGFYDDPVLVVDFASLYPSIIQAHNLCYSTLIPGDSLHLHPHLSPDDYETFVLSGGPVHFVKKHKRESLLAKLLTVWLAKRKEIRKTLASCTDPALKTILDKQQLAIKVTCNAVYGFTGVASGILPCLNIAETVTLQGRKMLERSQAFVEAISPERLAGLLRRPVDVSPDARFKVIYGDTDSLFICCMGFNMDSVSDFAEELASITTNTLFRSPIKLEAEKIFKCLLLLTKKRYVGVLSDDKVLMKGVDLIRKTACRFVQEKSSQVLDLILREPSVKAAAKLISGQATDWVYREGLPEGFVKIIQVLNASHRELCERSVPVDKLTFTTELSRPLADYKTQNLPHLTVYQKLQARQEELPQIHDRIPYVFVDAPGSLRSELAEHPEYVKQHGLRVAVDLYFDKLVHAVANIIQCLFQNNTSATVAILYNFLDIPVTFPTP
T1 sequence (F5HID2 1-396 partner): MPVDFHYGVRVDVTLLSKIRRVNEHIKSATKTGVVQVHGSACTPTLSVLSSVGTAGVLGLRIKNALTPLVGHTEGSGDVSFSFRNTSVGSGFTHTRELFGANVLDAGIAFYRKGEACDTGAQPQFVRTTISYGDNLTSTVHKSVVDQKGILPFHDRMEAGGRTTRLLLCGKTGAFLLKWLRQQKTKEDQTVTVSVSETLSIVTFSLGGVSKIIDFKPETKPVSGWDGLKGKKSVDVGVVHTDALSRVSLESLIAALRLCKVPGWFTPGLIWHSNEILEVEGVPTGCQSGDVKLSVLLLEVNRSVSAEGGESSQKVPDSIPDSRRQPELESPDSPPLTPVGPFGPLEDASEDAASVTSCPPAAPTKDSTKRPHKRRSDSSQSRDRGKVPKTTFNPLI
Procedure: KSHV rPOL and rPPF were expressed and purified from the recombinant baculovirus-vector infected Sf9 cells (Dorjsuren, D. et al. 2003 Protein Expr Purif 29:42-50). […] The amounts of newly synthesized DNA, which incorporated DIG-dUTP, were determined by the DIG detection kit (Roche Applied Science) according to the manufacturer's instructions.

KSHV [2] = experiment: Anti-KSHV activity in PMA-induced BCBL-1 cells (virion-associated and cytoplasmic KSHV DNA by PCR); type: cell-based, Kaposi's sarcoma-associated herpesvirus; conditions: for IC50 / IC90: Human gammaherpesvirus 8, BCBL1, 72 h, PMA-stimulated BCBL-1 cells, KSHV virion production, 3 days; for IC50: read-out: IC50 (μM) (mean ± SD), anti-KSHV activity; for IC90: read-out: IC90 (μM) (mean ± SD), anti-KSHV activity
Procedure: A small fraction (1-3%) of BCBL-1 cells in culture is known to spontaneously undergo lytic cycle and release KSHV virions (Kedes, D. H. et al. 1997 J Clin Invest 99:2082-6; Renne, R. et al. 1996 Nat Med 2:342-6). The antiviral effects of N-MCT and two reference anti-herpetic compounds, CDV and GCV, were determined by the relative reduction in the amounts of cytoplasmic KSHV DNA and newly released KSHV virion-associated DNA in BCBL-1 cells exposed to the test compounds, following lytic induction by phorbol ester, PMA (Renne, R. et al. 1996 Nat Med 2:342-6).
Exponentially growing BCBL-1 cells were washed three times with phosphate-buffered saline (PBS) and resuspended in serum free AIM-V w/BSA medium (Invitrogen, Carlsbad, Calif.) at 2×10^5 cells/mL in the absence (unstimulated control) or presence of 20 ng/mL PMA. After 24 hours, unstimulated and PMA-stimulated BCBL-1 were harvested, washed once with PBS and cultured in serum free AIM-V w/BSA medium at 2×10^5 cells/mL without PMA in the absence or presence of the test compounds at varying concentrations. After 3 days, the cells were counted by the trypan blue dye exclusion method and centrifuged at 1,500 rpm for 5 min. The supernatants were centrifuged at 3,000 rpm for 10 min before subjected to virion-derived KSHV DNA extraction and quantitation, as described below.
Low molecular weight (LMW) DNA was extracted from the pelleted cells according to Hirt's method (Hirt, B. 1967 J Mol Biol 26:365-9) and 0.1 μg of LMW DNA was used for KSHV open reading frame 65 (ORF65) PCR by a primer pair (5′-[…]-3′, SEQ ID NO: 2) and 5′-[…]-3′, SEQ ID NO: 3), generating a 529 bp fragment. The ORF65 PCR reaction mixture, containing 20 mM Tris-HCl (pH 8.4), 50 mM KCl, 2.5 mM MgCl2, 200 μM each dNTP, 0.25 U of Platinum® Taq DNA polymerase (Invitrogen), […] and template DNA, was subjected to 25 cycles of PCR amplification at 94° C. for 60 sec, 60° C. for 60 sec and 72° C. for 60 sec, followed by a final extension at 72° C. for 5 min. In addition, the mitochondrial DNA primer pair (5′-[…]-3′, SEQ ID NO: 4 and 5′-[…]-3′, SEQ ID NO: 5) was used as an internal control for each LMW DNA PCR sample (Yang, Q. et al. 2005 J Virol 79:6122-6133). The amplified products were visualized by electrophoresis on a 1.8% agarose gel.
KSHV virions were pelleted from 300 μL of BCBL-1 culture supernatants by a microcentrifugation at 37,000 g for 2 hours at 4° C. The pelleted virions were resuspended in 150 μL PBS and treated with 20 units of DNase I (Promega, Madison, Wis.) at 37° C. for 30 min to remove cellular DNA from the samples, followed by the incubation with stop solution (20 mM EGTA) at 70° C. for 5 min. Virion-associated KSHV DNA (vDNA) was then extracted by QIAamp DNA extraction kit (QIAGEN, Valencia, Calif.) according to the manufacturer's instructions. One μL of vDNA eluted in 100 μL of elution buffer was subjected to real-time quantitative PCR using a LightCycler® instrument (Roche Applied Science, Indianapolis, Ind.). The 20-μL reaction mixture consisted of the LightCycler FastStart DNA Master SYBR Green I reagents mix (Roche Applied Science), 2.5 mM MgCl2 and 500 nM each of KSHV ORF26 primer pair (5′-[…]-3′, SEQ ID NO: 6 and 5′-[…]-3′, SEQ ID NO: 7). Ten-fold serial dilutions of the plasmid, pKS330Bam (obtained through the AIDS Research and Reference Reagent Program, Division of AIDS, NIAID, NIH, contributed by Drs. Yuan Chang and Patrick Moore), which contained a 330 bp KSHV fragment encoding a portion of the ORF26 gene (Chang, Y. et al. 1994 Science 266:1865-9), were included in each assay as external standards to represent 10 to […] KSHV DNA copies/tube. The number of KSHV vDNA in each supernatant sample was calculated by the LightCycler software version 3.5 (Roche Applied Science), adjusted by the cell count and expressed as copies/10^6 cells.

HSV-1 = conditions: cited from earlier work
HSV-2 = conditions: cited from earlier work
[3] = system: PMA-stimulated BCBL-1 cells; experiment: Cytotoxicity by XTT assay in BCBL-1 cells
Procedure: (§1) The cytotoxicity of the compounds was determined simultaneously in uninduced and PMA-induced BCBL-1 cells in microplates, using the XTT assay (Weislow, O, S. et al. 1989 J Natl Cancer Inst 81:577-86).
PMA-stimulated BCBL-1 cells were cultured with increasing concentrations of N-MCT, CDV or GCV and the cell growth was determined by XTT method (Weislow, O, S. et al. 1989 J Natl Cancer Inst 81:577-86) after 72 hours and shown as % no drug control (mean±SD of triplicate wells).

KSHV [4] = experiment: Anti-KSHV activity in the presence of herpesvirus TK inhibitor 5'-ET; type: cell-based, Kaposi's sarcoma-associated herpesvirus; conditions: PMA-induced BCBL-1; 1 μM N-MCT or 10 μM CDV with 10, 20 or 50 μM 5'-ET
Procedure: as §1
Exponentially growing BCBL-1 cells or CEM-SS cells (a human T cell line) were washed three times with PBS and cultured in serum free AIM-V w/BSA medium (Invitrogen) at 2×10^5 cells/mL in the absence (unstimulated control) or presence of 20 ng/mL PMA. After 24 hours, unstimulated and PMA-stimulated cells were harvested, washed once with PBS and resuspended in […] radiolabeled compound [^3H]-(N)-MCT, [^3H]-CDV or [^3H]-GCV. Control cultures containing the same concentration of the test compounds but without the radiolabeled formulations were simultaneously set up in an identical manner to assess the cell counts and to evaluate their anti-KSHV activity. In selected experiments, 5′-ET was added at 10˜50 μM to investigate the changes in the anti-KSHV activity and intracellular phosphorylation profiles of the test compounds. The cells were harvested after 24 or 72 hours of incubation.

Compound: Cc1cn([C@H]2C[C@H](O)[C@]3(COP(=O)(O)OP(=O)(O)O)C[C@H]23)c(=O)[nH]c1=O [N-MCT-DP]
- level of phosphorylated metabolite in the presence of 50 μM 5'-ET (BCBL-1 cells): substantially decreased

Compound: cidofovir diphosphate [CDV-DP]
- IC50 [1]: 14.7 ± 2.47 µM

Compound: Cc1cn([C@@]23C[C@H](O)[C@@H](CO)[C@@H]2C3)c(=O)[nH]c1=O [S-MCT, south-methanocarbathymidine]
- antiviral activity against KSHV (KSHV [2]; data not shown): no antiviral activity
- antiviral activity against HSV-1 (HSV-1): no antiviral activity
- antiviral activity against HSV-2 (HSV-2): no antiviral activity

Compound: Nc1ccn(C[C@@H](CO)OCP(=O)(O)O)c(=O)n1 [CDV, cidofovir]
- IC50 (KSHV [2]): 0.42 ± 0.07 µM
- IC90 (KSHV [2]): 4.01 ± 2.05 µM
- cytotoxicity at anti-KSHV concentrations ([3]; 0.03 to 10 μM, PMA-induced BCBL-1 cells): without notable cytotoxicity
- effect of adding 5'-ET on anti-KSHV activity (KSHV [4]): not affected

Compound: Nc1nc(O)c2ncn(COC(CO)CO)c2n1 [GCV, ganciclovir]
- IC50 (KSHV [2]): 0.96 ± 0.49 µM
- IC90 (KSHV [2]): 7.11 ± 0.28 µM

Compound: ganciclovir triphosphate [GCV-TP]
- IC50 [1]: 24.6 ± 5.6 µM

Compound: Cc1cn([C@H]2C[C@H](O)[C@]3(CO)C[C@H]23)c(=O)[nH]c1=O [N-MCT, North-methanocarbathymidine]
- IC50 (KSHV [2]): 0.08 ± 0.03 µM
- IC90 (KSHV [2]): 0.68 ± 0.1 µM
- 50% cytotoxic concentration ([3]; human, 72 h): > 200 µM
- effect of adding 5'-ET on anti-KSHV activity (KSHV [4]): marked increases in the level of cytoplasmic KSHV DNA
- antiviral activity against HSV-1 (HSV-1): strong antiviral activity
- antiviral activity against HSV-2 (HSV-2): strong antiviral activity

Compound: Cc1cn(C2CC(O)C3(COP(=O)(O)O)CC23)c(=O)[nH]c1=O (stereo not shown) [N-MCT-MP]
- level of phosphorylated metabolite in the presence of 50 μM 5'-ET (BCBL-1 cells): accumulation

Source: patent US20090192077A1, “North-2'deoxy -methanocarbathymidines as antiviral agents for treatment of kaposi's sarcoma-associated herpes virus” (priority 2005, published 2009)
